The text below walks through data of PMC7531004, “Discovery of gramicidin A analogues with altered activities by multidimensional screening of a one-bead-one-compound library” (Nature Communications, 2020).

Molecules are shown by their SMILES. Where a SMILES comes first, the peptide text is derived from it. [ ]: non-standard residue; d: D form. The star is where a group is joined. NHCH2CH2OH = OCCN*; For = O=C*

Series [1] in a line: H+/Na+ transport assay of bead-derived peptides (one-point).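 Note: relative to parent gramicidin A activity set to 1.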 The following applies: bead-derived peptide solution, EYPC/EYPG LUVs. On the set-up: key: relative activity; mean of two control wells = 1.00. In kind it is biochemical. The gist of the method:
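Miniaturized 96-well format. LUVs with entrapped pyranine (1.0 mM) were exposed to peptide for 30 min at RT. Intensities were expressed relative to full lysis by Triton X-100 and no treatment, with control-well mean = 1.00.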

For series [2] the following is noted: cell viability/%. The method, boiled down: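 First, library peptide stocks are diluted 250-fold in RPMI1640 with 10% heat-inactivated FBS. Next, they are mixed with P388 cells to give 1 × 10^4 cells/mL and incubated 92 h at 37 °C, 5% CO2. Finally, viability (%) is scored by WST-1 absorbance at 415 nm.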
Series [3] deals with Streptococcus pyogenes SSI-9. As to the kind of experiment: Antibacterial activity assay of bead-derived peptides (three concentrations). In kind it is cell-based. Further details: key: +++: inhibition by the 640-fold diluted peptide solution; ++: inhibition by the 160-fold diluted solution; +: inhibition by the 40-fold diluted solution; -: no inhibition. The following applies: S. pyogenes, bead-derived peptide solution, three concentrations. The gist of the method: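 Three stock dilutions per peptide (none, 4-fold, 16-fold in DMSO) are screened in 96-well format. The medium is blood-supplemented cation-adjusted MHB, inoculated with 2 × 10^5 CFU S. pyogenes SSI-9. Growth is read as cell precipitation at 18 h, 37 °C.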

Take `CNC(=O)C[C@@H](NC(=O)[C@H](C)NC(=O)[C@@H](CC(C)C)NC(=O)[C@H](C)NC(=O)CNC(=O)[C@@H](NC=O)C(C)C)C(=O)N[C@H](C(=O)N[C@@H](C(=O)N[C@@H](Cc1c[nH]c2ccccc12)C(=O)N[C@H](CC(C)C)C(=O)N[C@@H](Cc1c[nH]c2ccccc12)C(=O)N[C@@H](C(=O)N[C@@H](Cc1c[nH]c2ccccc12)C(=O)N[C@@H](C(=O)N[C@@H](Cc1c[nH]c2ccccc12)C(=O)NCCO)C(C)C)C(C)C)C(C)C)C(C)C` [compound 11290] (For-VGA[dL]A[dD](NHMe)V[dV]W[dL]W[dV]W[dV]W-NHCH2CH2OH): the “H+/Na+ transport activity normalized against the value of 1 (1.00)” value (from here on “H+/Na+ transport activity normalized”) in series [1] came out at 1.47. For the same compound, in series [2], the viability worked out at 87.6%. The antibacterial activity entry in series [3] is listed as “-”.
The like results for `CC(C)C[C@@H](NC(=O)[C@H](C)NC(=O)CNC(=O)[C@@H](NC=O)C(C)C)C(=O)N[C@@H](C)C(=O)N[C@H](CC(C)C)C(=O)N[C@H](C(=O)N[C@@H](C(=O)N[C@@H](Cc1c[nH]c2ccccc12)C(=O)N[C@H](CC(C)C)C(=O)N[C@@H](Cc1c[nH]c2ccccc12)C(=O)N[C@@H](C(=O)N[C@@H](Cc1c[nH]c2ccccc12)C(=O)N[C@H](CC(C)C)C(=O)N[C@@H](Cc1c[nH]c2ccccc12)C(=O)NCCO)C(C)C)C(C)C)C(C)C` [compound 11305] (For-VGA[dL]A[dL]V[dV]W[dL]W[dV]W[dL]W-NHCH2CH2OH) were, in that order, 1.26, 15.5% and “+”.
As to `CC(C)C[C@@H](NC(=O)[C@H](C)NC(=O)[C@H](NC(=O)[C@H](C)NC(=O)CNC(=O)[C@@H](NC=O)C(C)C)C(C)C)C(=O)N[C@H](C(=O)N[C@H](CC(C)C)C(=O)N[C@@H](Cc1c[nH]c2ccccc12)C(=O)N[C@@H](C(=O)N[C@@H](Cc1c[nH]c2ccccc12)C(=O)N[C@H](CC(C)C)C(=O)N[C@@H](Cc1c[nH]c2ccccc12)C(=O)N[C@H](CC(C)C)C(=O)N[C@@H](Cc1c[nH]c2ccccc12)C(=O)NCCO)[C@H](C)O)C(C)C` [compound 11400] (For-VGA[dV]A[dL]V[dL]W[dT]W[dL]W[dL]W-NHCH2CH2OH), the “H+/Na+ transport activity normalized” value in series [1] worked out at 1.03. The viability in series [2] was 53%. For the same compound, the antibacterial activity result in series [3] was “+”.
The like results for `CNC(=O)C[C@@H](NC(=O)[C@@H](NC(=O)[C@H](NC(=O)[C@H](C)NC(=O)[C@H](NC(=O)[C@H](C)NC(=O)CNC(=O)[C@@H](NC=O)C(C)C)C(C)C)C(C)C)C(C)C)C(=O)N[C@@H](Cc1c[nH]c2ccccc12)C(=O)N[C@@H](C(=O)N[C@@H](Cc1c[nH]c2ccccc12)C(=O)N[C@@H](C(=O)N[C@@H](Cc1c[nH]c2ccccc12)C(=O)N[C@H](CC(C)C)C(=O)N[C@@H](Cc1c[nH]c2ccccc12)C(=O)NCCO)C(C)C)C(C)C` [compound 11413] (For-VGA[dV]A[dV]V[dD](NHMe)W[dV]W[dV]W[dL]W-NHCH2CH2OH) were, in that order, 1.21, 45.4% and “-”.
On to `CC(C)C[C@@H](NC(=O)[C@H](C)NC(=O)CNC(=O)[C@@H](NC=O)C(C)C)C(=O)N[C@@H](C)C(=O)N[C@@H](C(=O)N[C@H](C(=O)N[C@H](CC(C)C)C(=O)N[C@@H](Cc1c[nH]c2ccccc12)C(=O)N[C@@H](C(=O)N[C@@H](Cc1c[nH]c2ccccc12)C(=O)N[C@@H](C(=O)N[C@@H](Cc1c[nH]c2ccccc12)C(=O)N[C@@H](C(=O)N[C@@H](Cc1c[nH]c2ccccc12)C(=O)NCCO)[C@H](C)O)C(C)C)C(C)C)C(C)C)C(C)C` [compound 11625] (For-VGA[dL]A[dV]V[dL]W[dV]W[dV]W[dT]W-NHCH2CH2OH), for which the “H+/Na+ transport activity normalized” value in series [1] was 1.08. The compound further yielded a viability in series [2] of 100%. For the same compound, the antibacterial activity entry in series [3] is given as “-”.
In the case of `CC(C)C[C@@H](NC(=O)[C@H](Cc1c[nH]c2ccccc12)NC(=O)[C@@H](CC(C)C)NC(=O)[C@H](Cc1c[nH]c2ccccc12)NC(=O)[C@H](NC(=O)[C@H](Cc1c[nH]c2ccccc12)NC(=O)[C@H](NC(=O)[C@@H](NC(=O)[C@H](NC(=O)[C@H](C)NC(=O)[C@H](NC(=O)[C@H](C)NC(=O)CNC(=O)[C@@H](NC=O)C(C)C)C(C)C)C(C)C)C(C)C)[C@H](C)O)[C@H](C)O)C(=O)N[C@@H](Cc1c[nH]c2ccccc12)C(=O)NCCO` [compound 12293] (For-VGA[dV]A[dV]V[dT]W[dT]W[dL]W[dL]W-NHCH2CH2OH), the “H+/Na+ transport activity normalized” value in series [1] amounted to 1.00. Besides, the viability in series [2] is 100%. In series [3], the antibacterial activity entry was “-”.
The like results for `CC(C)C[C@@H](NC(=O)[C@H](Cc1c[nH]c2ccccc12)NC(=O)[C@H](NC(=O)[C@H](Cc1c[nH]c2ccccc12)NC(=O)[C@@H](CC(C)C)NC(=O)[C@H](Cc1c[nH]c2ccccc12)NC(=O)[C@@H](CC(C)C)NC(=O)[C@@H](NC(=O)[C@H](NC(=O)[C@H](C)NC(=O)[C@H](NC(=O)[C@H](C)NC(=O)CNC(=O)[C@@H](NC=O)C(C)C)C(C)C)C(C)C)C(C)C)C(C)C)C(=O)N[C@@H](Cc1c[nH]c2ccccc12)C(=O)NCCO` [compound 12432] (For-VGA[dV]A[dV]V[dL]W[dL]W[dV]W[dL]W-NHCH2CH2OH) were, in that order, 1.01, 6.4% and “-”.
In the same order, the values of `CC(C)C[C@@H](NC(=O)[C@H](Cc1c[nH]c2ccccc12)NC(=O)[C@H](NC(=O)[C@H](Cc1c[nH]c2ccccc12)NC(=O)[C@H](NC(=O)[C@@H](NC(=O)[C@H](NC(=O)[C@H](C)NC(=O)[C@H](NC(=O)[C@H](C)NC(=O)CNC(=O)[C@@H](NC=O)C(C)C)[C@H](C)O)C(C)C)C(C)C)C(C)C)[C@H](C)O)C(=O)N[C@@H](Cc1c[nH]c2ccccc12)C(=O)N[C@@H](C(=O)N[C@@H](Cc1c[nH]c2ccccc12)C(=O)NCCO)C(C)C` [compound 12629] (For-VGA[dT]A[dV]V[dV]W[dT]W[dL]W[dV]W-NHCH2CH2OH) are 1.01, 100% and “-”.
In the same order, the values of `CC(C)C[C@@H](NC(=O)[C@H](C)NC(=O)[C@H](NC(=O)[C@H](C)NC(=O)CNC(=O)[C@@H](NC=O)C(C)C)C(C)C)C(=O)N[C@H](C(=O)N[C@@H](C(=O)N[C@@H](Cc1c[nH]c2ccccc12)C(=O)N[C@@H](C(=O)N[C@@H](Cc1c[nH]c2ccccc12)C(=O)N[C@@H](C(=O)N[C@@H](Cc1c[nH]c2ccccc12)C(=O)N[C@H](CC(C)C)C(=O)N[C@@H](Cc1c[nH]c2ccccc12)C(=O)NCCO)C(C)C)[C@H](C)O)C(C)C)C(C)C` [compound 12865] (For-VGA[dV]A[dL]V[dV]W[dT]W[dV]W[dL]W-NHCH2CH2OH) are 1.10, 91.7% and “-”.
`CNC(=O)C[C@@H](NC(=O)[C@H](C)NC(=O)[C@H](NC(=O)[C@H](C)NC(=O)CNC(=O)[C@@H](NC=O)C(C)C)C(C)C)C(=O)N[C@H](C(=O)N[C@@H](C(=O)N[C@@H](Cc1c[nH]c2ccccc12)C(=O)N[C@H](CC(C)C)C(=O)N[C@@H](Cc1c[nH]c2ccccc12)C(=O)N[C@@H](C(=O)N[C@@H](Cc1c[nH]c2ccccc12)C(=O)N[C@H](CC(C)C)C(=O)N[C@@H](Cc1c[nH]c2ccccc12)C(=O)NCCO)C(C)C)C(C)C)C(C)C` [compound 12938] (For-VGA[dV]A[dD](NHMe)V[dV]W[dL]W[dV]W[dL]W-NHCH2CH2OH): the “H+/Na+ transport activity normalized” value in series [1] is given as 1.07. The same compound displayed a viability in series [2] of 100%. Besides, the antibacterial activity result in series [3] is on record as “-”.
In the same order, the values of `CC(C)C[C@@H](NC(=O)[C@H](C)NC(=O)CNC(=O)[C@@H](NC=O)C(C)C)C(=O)N[C@@H](C)C(=O)N[C@@H](C(=O)N[C@H](C(=O)N[C@@H](C(=O)N[C@@H](Cc1c[nH]c2ccccc12)C(=O)N[C@H](CC(C)C)C(=O)N[C@@H](Cc1c[nH]c2ccccc12)C(=O)N[C@H](CC(C)C)C(=O)N[C@@H](Cc1c[nH]c2ccccc12)C(=O)N[C@@H](C(=O)N[C@@H](Cc1c[nH]c2ccccc12)C(=O)NCCO)C(C)C)C(C)C)C(C)C)[C@H](C)O` [compound 13002] (For-VGA[dL]A[dT]V[dV]W[dL]W[dL]W[dV]W-NHCH2CH2OH) are 1.33, 98.3% and “-”.
The like results for `CNC(=O)C[C@@H](NC(=O)[C@H](Cc1c[nH]c2ccccc12)NC(=O)[C@@H](CC(C)C)NC(=O)[C@H](Cc1c[nH]c2ccccc12)NC(=O)[C@H](NC(=O)[C@H](Cc1c[nH]c2ccccc12)NC(=O)[C@@H](CC(C)C)NC(=O)[C@@H](NC(=O)[C@@H](CC(C)C)NC(=O)[C@H](C)NC(=O)[C@@H](CC(C)C)NC(=O)[C@H](C)NC(=O)CNC(=O)[C@@H](NC=O)C(C)C)C(C)C)[C@H](C)O)C(=O)N[C@@H](Cc1c[nH]c2ccccc12)C(=O)NCCO` [compound 13033] (For-VGA[dL]A[dL]V[dL]W[dT]W[dL]W[dD](NHMe)W-NHCH2CH2OH) were, in that order, 1.01, 100% and “-”.

The term viability denotes a per cent measure of how many cells are alive, often set against a control.
